Experiment in all cases: NCI-60 cell line screen, 48 h
The subject of assay [1] is OVCAR-5 ovarian.
Assay [2] has as its system MDA-MB-435.
For assay [3], the system named is HCT-116 colon.
The subject of assay [4] is NCI-H460 lung.
Assay [5] concerns UACC-257 melanoma.
The subject of assay [6] is KM12 colon.
The subject of assay [7] is UO-31 renal.
The test system of assay [8] is HL-60(TB) leukemia.
Assay [9] concerns SNB-19 CNS.
In assay [10] the test system is RPMI-8226 leukemia.

Molecules are shown by their SMILES.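 Assay format: 96-well plates, 48-hour exposure. GI50 marks 50% less growth. TGI: concentration producing complete growth inhibition.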 *1 amine or outer side, *2 acyl side, *3 side chain or, on linkers, in order; H or OH if unused. Where a SMILES comes first, the peptide text is derived from it. Bridges are numbered along the chain shown (N, C = ends). Roman numbers before positions name the chains, in order. X23 = CCCCCCCCCCCCCCC(=O)NC(CCCCN[*:2])C(=O)CN1CCCC1C(=O)[*:1]

Turning to `CN(CCNC(=O)c1cn(C)c2c1ccc1cc(Cl)ccc12)CCNC(=O)c1cn(C)c2c1ccc1cc(Cl)ccc12`, the TGI in assay [1] was 4.41 µM; in assay [2], 3.47 µM; in [3] it was 3.18 µM; in [4], greater than 100 µM; in assay [5] it was 67.4 µM; in assay [6], 3.03 µM. Also, the TGI in assay [7] was 2.94 µM; in [8], 10.4 µM.
Take `OCCSCc1cc(Cl)cc(Cl)c1O`: the TGI in assay [9], in assay [1], in assay [2], in assay [3], in assay [4] and in [10] was greater than 100 µM throughout. For the same compound, the TGI in assay [5], in assay [6] and in assay [7] was greater than 100 µM throughout.
Consider `O=C1CSc2sc(=S)sc2S1`, for which the TGI in [9], in assay [1], in assay [3], in assay [4], in [10] and in [5] was greater than 100 µM throughout. The TGI in [6], in assay [7] and in assay [8] was greater than 100 µM in each case.
Turning to `Cc1cc(O)c2cc3c(O)c(O)ccc3cc2c1`, the TGI is greater than 100 µM in assay [9]; 13.5 µM in [1]; 22.8 µM in [2]; 3.63 µM in assay [4]; greater than 100 µM in assay [10]; 13.5 µM in assay [5]. Moreover, the TGI in assay [6] amounted to 2.32 µM; in assay [7] it was 2.22 µM; in assay [8], 4.16 µM.
In the case of `CC(C)(C)OC(=O)N1CCCC1C(=O)NCCNc1ccc(NCCNC(=O)C2CCCN2C(=O)OC(C)(C)C)c2c1C(=O)c1ccccc1C2=O` (stereo unspecified), the TGI is 30.6 µM in [1]; 39.8 µM in assay [2]; 26 µM in [3]; 0.0538 µM in assay [10]; 29.6 µM in [5]; 41.7 µM in assay [6]. Moreover, the TGI in assay [8] was greater than 100 µM.
As to `O=C1NC2(NC(=O)C1=O)Nc1ccccc1S2`, the TGI in assay [9] was greater than 100 µM; in [1], greater than 100 µM; in assay [3], 38.9 µM; in [4] it was greater than 100 µM; in [10], 57.9 µM; in [5], greater than 100 µM. The TGI in [6] was greater than 100 µM; in assay [7], greater than 95.4 µM; in assay [8], greater than 64.8 µM.
Consider `Cc1ccc(NC(=O)CC(=O)n2nc(-c3ccccc3)c(N=Nc3ccccc3C(=O)O)c2-c2ccccc2)cc1`, for which the TGI in [9], in assay [1], in assay [3], in assay [10], in assay [6] and in assay [7] was greater than 100 µM each time.
Take `Nc1nccc2c1ncn2C1C=C(CO)C(O)C1O` (stereo unspecified): the GI50 in assay [9] is greater than 1000 µM; in assay [4], 0.578 µM; in assay [10], 243 µM; in assay [5], 3.28 µM; in [6], 0.755 µM; in [8], 0.337 µM. The TGI in assay [9] was greater than 1000 µM; in assay [1] it was greater than 54.1 µM; in [3] it was greater than 85.8 µM; in [4] it was greater than 1000 µM; in assay [10], greater than 1000 µM; in assay [5], greater than 1000 µM. Further, the TGI in assay [6] and in assay [8] was greater than 1000 µM throughout.
With `O=C1/C(=C/c2ccc3c(c2)OCO3)Sc2scc(-c3ccc(O)c(O)c3)[n+]21`, the TGI in assay [9] was determined as 36.2 µM; in [1] it was 30.6 µM; in [2] it was 13.5 µM; in assay [3], 6.29 µM; in [4], 12.8 µM; in assay [10], 4.42 µM. The TGI worked out at 9.35 µM in assay [5], 13.1 µM in assay [6] and 6.08 µM in assay [7].
`CCCCCCCCCCCCCCC(=O)NC(CCCCNC(=O)C1CCCN1C(=O)C(CCCCN)NC(=O)C(CCCCN)NC(=O)C(CCCCN)NC(=O)C(CCCNC(=N)N)NC(=O)C(CCCCN)NC(=O)C(N)C(C)C)C(=O)CN1CCCC1C(=O)NCC(=O)NC(Cc1ccccc1)C(=O)N1CCCC1C(=O)NC(CO)C(=O)NC(Cc1ccc(O)cc1)C(=O)NC(CCCCN)C(=O)NC(CC(C)C)C(=O)NC(CCCNC(=N)N)C(=O)N1CCCC1C(=O)NCC(N)=O` (stereo unspecified) (I: GFPSYKLRPG-NH2 / II: H-VKRKKKP; linker I:N-II:C via X23; configuration not given here): the GI50 in assay [9] is 31.4 µM; in assay [1] it was 29.7 µM; in [2] it was 3.15 µM; in assay [3], 14.3 µM; in assay [4] it was 14.6 µM; in assay [10] it was 11 µM. Besides, the GI50 in assay [5] was 14 µM; in assay [6], 1.89 µM; in assay [7], 24.7 µM; in assay [8], 22.5 µM. Further, the TGI in assay [9] stood at 76.6 µM; in assay [1] it was 74.9 µM; in assay [2] it was 41.6 µM; in assay [3], 33.1 µM; in assay [4] it was 49.9 µM; in [10], 30 µM. In addition, the TGI in assay [5] amounted to 53.8 µM; in assay [6] it was 3.85 µM; in assay [7], 77.1 µM; in [8] it was 94.8 µM.
As for `O=[P+](O)c1cccs1`, the TGI in assay [9], in assay [3], in assay [4], in assay [10], in [7] and in assay [8] was greater than 100 µM throughout.
On to `CCc1cccc(C(C)C)c1NC1=C([n+]2ccc(C)cc2)C(=O)c2ccccc2C1=O`, for which the TGI in assay [9] is greater than 100 µM; in assay [1], 23.2 µM; in [2] it was 3.12 µM; in assay [3], greater than 100 µM; in assay [4] it was 4.09 µM; in assay [10], 2.71 µM. Further, the TGI in assay [5] is 4.45 µM; in assay [6] it was greater than 43.4 µM; in assay [7] it was 10 µM; in assay [8] it was 9.29 µM.

The values are drawn from PubChem BioAssay (NCI).
